Test results reported in patent US10105357B2, “Indication of antibiotic drugs for preparation of cancer inhibition pharmaceutical composition” (LAUNX BIOMEDICAL CO., LTD., priority 2014, dated 2018).
Read-outs that look alike come from different tables or passages of the source.

Legend:
BxPC-3 = experiment: Cell viability analysis, pancreatic cancer BxPC-3; format: cell-based, human; conditions: Homo sapiens, BXPC-3, 72 h, read-out: The results of antibiotic drug inhibiting cancer cell lines (cell viability analysis), BxPC-3
[1] = tested on: C-33A (Cervical carcinoma); experiment: Cell viability analysis, cervical cancer C-33A; format: cell-based, human; conditions: Homo sapiens, C-33-A, 72 h, read-out: The results of antibiotic drug inhibiting cancer cell lines (cell viability analysis), C-33A
[2] = tested on: AGS (Gastric Adenocarcinoma); experiment: Cell viability analysis, gastric cancer AGS; format: cell-based, human; conditions: Homo sapiens
NIH: OVCAR-3 = experiment: Cell viability analysis, ovarian cancer NIH: OVCAR-3; format: cell-based, human; conditions: Homo sapiens, OVCAR-3, 72 h, read-out: The results of antibiotic drug inhibiting cancer cell lines (cell viability analysis), NIH-OVCAR-3
[3] = tested on: HI650 (Lung Adenocarcinoma); experiment: Cell viability analysis, lung cancer HI650; format: cell-based, human; conditions: Homo sapiens
[4] = tested on: 786-O (Renal adenocarcinoma); experiment: Cell viability analysis, renal cancer 786-O; format: cell-based, human; conditions: Homo sapiens, 786-0, 72 h, read-out: The results of antibiotic drug inhibiting cancer cell lines (cell viability analysis), 786-O
[5] = tested on: HL-60 (Acute Promyelocytic Leukemia); experiment: Cell viability analysis, leukemia HL-60; format: cell-based, human; conditions: Homo sapiens, HL-60; drug 10 μM, 72 hours, WST-1, OD450 nm; read-out: cell viability (survival rate), HL-60
[6] = tested on: MKN-45 (Gastric Adenocarcinoma); experiment: Cell viability analysis, gastric cancer MKN-45; format: cell-based, human; conditions: Homo sapiens
[7] = tested on: HepG2 (Hepatocellular Carcinoma); experiment: Cell viability analysis, hepatic cancer HepG2; format: cell-based, human; conditions: Homo sapiens
[8] = tested on: BCC (basal cell carcinoma); experiment: Cell viability analysis, skin cancer BCC; format: cell-based, human; conditions: Homo sapiens, 72 h, read-out: The results of antibiotic drug inhibiting cancer cell lines (cell viability analysis), BCC
[9] = tested on: SAS (Tongue squamous cell carcinoma); experiment: Cell viability analysis, tongue cancer SAS; format: cell-based, human; conditions: Homo sapiens, 72 h, read-out: The results of antibiotic drug inhibiting cancer cell lines (cell viability analysis), SAS
[10] = tested on: HCT116 (p53+) (Colorectal Carcinoma)
[11] = tested on: MCF7 (Mammary Gland, Adenocarcinoma); experiment: Cell viability analysis, breast cancer MCF7; format: cell-based, human; conditions: Homo sapiens
[12] = tested on: HeLa (Cervix Adenocarcinoma); experiment: Cell viability analysis, cervical cancer HeLa; format: cell-based, human; conditions: Homo sapiens, HeLa
U-2OS = experiment: Cell viability analysis, osteosarcoma U-2OS; format: cell-based, human; conditions: Homo sapiens, U2OS, 72 h, read-out: The results of antibiotic drug inhibiting cancer cell lines (cell viability analysis), U2OS
T24 = experiment: Cell viability analysis, bladder cancer T24; format: cell-based, human; conditions: Homo sapiens, T-24, 72 h, read-out: The results of antibiotic drug inhibiting cancer cell lines (cell viability analysis), T24
[13] = tested on: A549 (Lung Adenocarcinoma); experiment: Cell viability analysis, lung cancer A549; format: cell-based, human; conditions: Homo sapiens
[14] = tested on: Hep3B (hepatocellular carcinoma); experiment: Cell viability analysis, hepatic cancer Hep3B; format: cell-based, human; conditions: Homo sapiens, Hep3B, 72 h, read-out: The results of antibiotic drug inhibiting cancer cell lines (cell viability analysis), Hep3B
[15] = tested on: TSGH-8301 (Urinary Bladder Carcinoma); experiment: Cell viability analysis, bladder cancer TSGH-8301; format: cell-based, human; conditions: Homo sapiens
TOV-21G = experiment: Cell viability analysis, ovarian cancer TOV-21G; format: cell-based, human; conditions: Homo sapiens, TOV21G, 72 h, read-out: The results of antibiotic drug inhibiting cancer cell lines (cell viability analysis), TOV-21G
[16] = tested on: A375 (Amelanotic Melanoma); experiment: Cell viability analysis, skin cancer A375; format: cell-based, human; conditions: Homo sapiens
[17] = tested on: MDA-MB-231 (Mammary Gland, Adenocarcinoma); experiment: Cell viability analysis, breast cancer MDA-MB-231; format: cell-based, human; conditions: Homo sapiens, MDA-MB-231, 72 h, read-out: The results of antibiotic drug inhibiting cancer cell lines (cell viability analysis), MDA-MB231
AsPC-1 = experiment: Cell viability analysis, pancreatic cancer AsPC-1; format: cell-based, human; conditions: Homo sapiens, ASPC1, 72 h, read-out: The results of antibiotic drug inhibiting cancer cell lines (cell viability analysis), AsPC-1
[18] = tested on: PC3 (p53−) (Prostate Adenocarcinoma); experiment: Cell viability analysis, prostate cancer PC3; format: cell-based, human; conditions: Homo sapiens
[19] = tested on: LoVo (Colorectal Adenocarcinoma); experiment: Cell viability analysis, colon cancer LoVo; format: cell-based, human; conditions: Homo sapiens, LoVo

SMILES: CCC[C@H](NC(=O)[C@@H]1[C@H]2CCC[C@H]2CN1C(=O)[C@@H](NC(=O)[C@@H](NC(=O)c1cnccn1)C1CCCCC1)C(C)(C)C)C(=O)C(=O)NC1CC1 [Telaprevir (VX-950), Telaprevir]
- viability at 10 µM (BxPC-3): 63.9%
- viability at 10 µM [1]: 102%
- viability at 10 µM ([2]; 72 h, AGS, repeated experiment, read-out: The results of antibiotic drug inhibiting cancer cell lines (cell viability analysis), AGS): 111%
- viability at 10 µM ([2]; drug 10 μM, 72 hours, WST-1, OD450 nm, read-out: cell viability (survival rate), AGS): 49.2%
- viability at 10 µM (NIH: OVCAR-3): 95.6%
- viability at 10 µM ([3]; NCI-H1650, 72 h, H1650, repeated experiment, read-out: The results of antibiotic drug inhibiting cancer cell lines (cell viability analysis), H1650): 107%
- viability at 10 µM ([3]; NCI-H1650, drug 10 μM, 72 hours, WST-1, OD450 nm, read-out: cell viability (survival rate), H1650): 51.6%
- viability at 10 µM [4]: 94.8%
- viability at 10 µM [5]: 111%
- viability at 10 µM ([6]; 72 h, MKN-45, repeated experiment, read-out: The results of antibiotic drug inhibiting cancer cell lines (cell viability analysis), MKN-45): 107%
- viability at 10 µM ([6]; MKN-45, drug 10 μM, 72 hours, WST-1, OD450 nm, read-out: cell viability (survival rate), MKN-45): 48%
- viability at 10 µM ([7]; 72 h, HepG2, repeated experiment, read-out: The results of antibiotic drug inhibiting cancer cell lines (cell viability analysis), HepG2): 114%
- viability at 10 µM ([7]; HepG2, drug 10 μM, 72 hours, WST-1, OD450 nm, read-out: cell viability (survival rate), HepG2): 100%
- viability at 10 µM [8]: 92.5%
- viability at 10 µM [9]: 67.6%
- viability [10]: 93.6%
- viability at 10 µM ([11]; MCF7, 72 h, MCF-7, repeated experiment, read-out: The results of antibiotic drug inhibiting cancer cell lines (cell viability analysis), MCF-7): 76.4%
- viability at 10 µM ([11]; MCF7, drug 10 μM, 72 hours, WST-1, OD450 nm, read-out: cell viability (survival rate), MCF7): 61.6%
- viability at 10 µM ([12]; 72 h, repeated experiment, read-out: The results of antibiotic drug inhibiting cancer cell lines (cell viability analysis), HeLa): 92.6%
- viability at 10 µM ([12]; drug 10 μM, 72 hours, WST-1, OD450 nm, read-out: cell viability (survival rate), HeLa): 84%
- viability at 10 µM (U-2OS): 63.4%
- viability at 10 µM (T24): 115%
- viability at 10 µM ([13]; 72 h, A549, repeated experiment, read-out: The results of antibiotic drug inhibiting cancer cell lines (cell viability analysis), A549): 80.4%
- viability at 10 µM ([13]; A549, drug 10 μM, 72 hours, WST-1, OD450 nm, read-out: cell viability (survival rate), A549): 49.3%
- viability at 10 µM [14]: 121%
- viability at 10 µM ([15]; 72 h, TSGH-8301, repeated experiment, read-out: The results of antibiotic drug inhibiting cancer cell lines (cell viability analysis), TSGH-8301): 103%
- viability at 10 µM ([15]; drug 10 μM, 72 hours, WST-1, OD450 nm, read-out: cell viability (survival rate), TSGH): 50.2%
- viability at 10 µM (TOV-21G): 81.6%
- viability at 10 µM ([16]; A-375, 72 h, A375, repeated experiment, read-out: The results of antibiotic drug inhibiting cancer cell lines (cell viability analysis), A375): 105%
- viability at 10 µM ([16]; A-375, drug 10 μM, 72 hours, WST-1, OD450 nm, read-out: cell viability (survival rate), A375): 131%
- viability at 10 µM [17]: 95.6%
- viability at 10 µM (AsPC-1): 69.3%
- viability at 10 µM ([18]; 72 h, PC-3, repeated experiment, read-out: The results of antibiotic drug inhibiting cancer cell lines (cell viability analysis), PC-3): 89.2%
- viability at 10 µM ([18]; drug 10 μM, 72 hours, WST-1, OD450 nm, read-out: cell viability (survival rate), PC3): 50%
- viability at 10 µM ([19]; 72 h, repeated experiment, read-out: The results of antibiotic drug inhibiting cancer cell lines (cell viability analysis), LoVo): 87%
- viability at 10 µM ([19]; drug 10 μM, 72 hours, WST-1, OD450 nm, read-out: cell viability (survival rate), LoVo): 73.7%

SMILES: CCCOc1ccc2nc(NC(=O)OC)[nH]c2c1 [Oxibendazole]
- viability at 10 µM (BxPC-3): 29.1%
- viability at 10 µM [1]: 47.8%
- viability at 10 µM ([2]; 72 h, read-out: The results of antibiotic drug inhibiting cancer cell lines (cell viability analysis), AGS, repeated experiment): 37.6%
- viability at 10 µM (NIH: OVCAR-3): 54.8%
- viability at 10 µM ([3]; NCI-H1650, 72 h, read-out: The results of antibiotic drug inhibiting cancer cell lines (cell viability analysis), H1650, H1650, repeated experiment): 41.3%
- viability at 10 µM [4]: 18.5%
- viability at 10 µM ([6]; MKN-45, 72 h, read-out: The results of antibiotic drug inhibiting cancer cell lines (cell viability analysis), MKN-45, MKN-45, repeated experiment): 65.6%
- viability at 10 µM ([7]; HepG2, 72 h, read-out: The results of antibiotic drug inhibiting cancer cell lines (cell viability analysis), HepG2, HepG2, repeated experiment): 64.5%
- viability at 10 µM [8]: 34.3%
- viability at 10 µM [9]: 41.2%
- viability [10]: 22.1%
- viability at 10 µM ([11]; MCF7, 72 h, read-out: The results of antibiotic drug inhibiting cancer cell lines (cell viability analysis), MCF-7, MCF-7, repeated experiment): 60.9%
- viability at 10 µM ([12]; 72 h, read-out: The results of antibiotic drug inhibiting cancer cell lines (cell viability analysis), HeLa, repeated experiment): 29.3%
- viability at 10 µM (U-2OS): 46.6%
- viability at 10 µM (T24): 38.1%
- viability at 10 µM ([13]; A549, 72 h, read-out: The results of antibiotic drug inhibiting cancer cell lines (cell viability analysis), A549, A549, repeated experiment): 24%
- viability at 10 µM [14]: 59.8%
- viability at 10 µM ([15]; 72 h, read-out: The results of antibiotic drug inhibiting cancer cell lines (cell viability analysis), TSGH-8301, TSGH-8301, repeated experiment): 48.6%
- viability at 10 µM (TOV-21G): 26.6%
- viability at 10 µM ([16]; A-375, 72 h, read-out: The results of antibiotic drug inhibiting cancer cell lines (cell viability analysis), A375, A375, repeated experiment): 31.8%
- viability at 10 µM [17]: 48.9%
- viability at 10 µM (AsPC-1): 33%
- viability at 10 µM ([18]; 72 h, read-out: The results of antibiotic drug inhibiting cancer cell lines (cell viability analysis), PC-3, PC-3, repeated experiment): 38.9%
- viability at 10 µM ([19]; 72 h, read-out: The results of antibiotic drug inhibiting cancer cell lines (cell viability analysis), LoVo, repeated experiment): 53.4%
